Measurements as given in patent US10654834B2 (Venenum Biodesign, LLC, priority 2016, dated 2020).

Experiments:
Mouse STC-1 cells = assay: STC-1 GLP-1 assay (GLP-1 secretion); assay type: cell-based; details: Mouse STC-1 cells, GLP-1 secretion, 2 h; read-out: Mouse STC-1 HTRF GLP-1 Activity (EC50)
Procedure, shortened: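 Secreted active GLP-1 was measured by HTRF after overnight room-temperature incubation of supernatant with the conjugates. Supernatants came from a 2 h, 37° C. compound exposure (12-point half-log series) in HBSS with DPP-IV and protease inhibitors and 0.1% fatty acid free BSA. STC-1 cells had been seeded two days earlier in stripped-serum DMEM; EC50 reported.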

[1] = Pharmacokinetic profile in mice after oral gavage; assay type: in vivo, mouse; details: mouse; fasted male Hilltop mice, 10 mg/kg oral gavage, plasma; read-out: Cmax
Procedure, shortened: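 Plasma exposure (Cmax, AUC) by non-compartmental analysis of LC-MS/MS data, orbital blood taken at 0, 0.25, 0.5, 1, 2 and 4 h, each value averaging three mice. Dosing: 10 mg/kg oral gavage to overnight-fasted male Hilltop mice (8 weeks), vehicle PEG400/CMC/Tween-80.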

SMILES	EC50 (Mouse STC-1 cells) [nM]	Cmax [1] [ng/mL]
N#Cc1ccc(CCNC(=O)[C@@H]2CCCN2c2cc(N3CCC(CCCC(=O)N[C@@H](CCCNC(=N)N)C(=O)N[C@@H](CCCNC(=N)N)C(=O)O)CC3)cc(C(F)(F)F)n2)cc1 [Compound 202, (S)-2-((S)-2-(4-(1-(2-((S)-2-((4-cyanophenethyl)carbamoyl)pyrrolidin-1-yl)-6-(trifluoromethyl)pyridin-4-yl)piperidin-4-yl)butanamido)-5-guanidinopentanamido)-5-guanidinopentanoic acid]	< 100	< 0.1
N#Cc1ccc(CCNC(=O)[C@@H]2CCCN2c2cc(N3CCC(CCCC(=O)NCCS(=O)(=O)O)CC3)nc(C(F)(F)F)n2)cc1 [Compound 61, (S)-2-(4-(1-(6-(2-((4-cyanophenethyl)carbamoyl)pyrrolidin-1-yl)-2-(trifluoromethyl)pyrimidin-4-yl)-piperidin-4-yl)butanamido)ethanesulfonic acid]	< 100	3.3
N#Cc1ccc(CCNC(=O)[C@@H]2CCN2c2cc(N3CCC(CCNC(=O)NCCOCCNC(=O)NCCC(=O)O)CC3)nc(C(F)(F)F)n2)cc1 [Compound 360, (S)-1-(1-(6-(2-((4-cyanophenethyl)carbamoyl)azetidin-1-yl)-2-(trifluoromethyl)pyrimidin-4-yl)piperidin-4-yl)-4,12-dioxo-8-oxa-3,5,11,13-tetraazahexadecan-16-oic acid]	< 100	0.5
N#Cc1ccc(CCNC(=O)[C@@H]2CCCN2c2cc(N3CCC(CCCC(=O)NCCCS(=O)(=O)O)CC3)nc(C(F)(F)F)n2)cc1 [Compound 63, (S)-3-(4-(1-(6-(2-((4-cyanophenethyl)carbamoyl)pyrrolidin-1-yl)-2-(trifluoromethyl)pyrimidin-4-yl)-piperidin-4-yl)butanamido)propane-1-sulfonic acid]	< 100	1.3
N#Cc1ccc(CCNC(=O)[C@@H]2CCCN2c2cc(N3CCC(CCCNC(=O)NCCS(N)(=O)=O)CC3)nc(C(F)(F)F)n2)cc1 [Compound 120, (S)-N-(4-cyanophenethyl)-1-(6-(4-(3-(3-(2-sulfamoylethyl)ureido)propyl)piperidin-1-yl)-2-(trifluoromethyl)pyrimidin-4-yl)pyrrolidine-2-carboxamide]	< 100	2.6
N#Cc1ccc(CCNC(=O)[C@@H]2CCN2c2cc(N3CCC(CCNC(=N)N)CC3)nc(C(F)(F)F)n2)cc1 [Compound 285, (S)-N-(4-cyanophenethyl)-1-(6-(4-(2-guanidinoethyl)piperidin-1-yl)-2-(trifluoromethyl)pyrimidin-4-yl)azetidine-2-carboxamide]	< 100	0.9
O=C(O)CCC1CCN(c2cc(N3CC[C@H]3C(=O)NCCc3ccc(C(F)(F)F)cc3)nc(C(F)(F)F)n2)CC1 [Compound 232, (S)-3-(1-(2-(trifluoromethyl)-6-(2-((4-(trifluoromethyl)phenethyl)carbamoyl)azetidin-1-yl)pyrimidin-4-yl)piperidin-4-yl)propanoic acid]	< 100	64
O=C(CCCC1CCN(c2cc(N3CCC[C@H]3C(=O)NCCc3ccc(C(F)(F)F)cc3)nc(C(F)(F)F)n2)CC1)NCCS(=O)(=O)O [Compound 58, (S)-2-(4-(1-(2-(trifluoromethyl)-6-(2-((4-(trifluoromethyl)phenethyl)-carbamoyl)-pyrrolidin-1-yl)-pyrimidin-4-yl)piperidin-4-yl)butanamido)ethanesulfonic acid]	< 100	29
N#Cc1ccc(CCNC(=O)[C@@H]2CCN2c2cc(N3CCC(CCCC(=O)NCCCCNC(=N)N)CC3)nc(C(F)(F)F)n2)cc1 [Compound 283, (S)-N-(4-cyanophenethyl)-1-(6-(4-(4-((4-guanidinobutyl)amino)-4-oxobutyl)piperidin-1-yl)-2-(trifluoromethyl)pyrimidin-4-yl)azetidine-2-carboxamide]	100 to 999	2.7
N#Cc1ccc(CCNC(=O)[C@@H]2CCN2c2cc(N3CCC(CCCC(=O)NCCNC(=N)N)CC3)nc(C(F)(F)F)n2)cc1 [Compound 282, (S)—N-(4-cyanophenethyl)-1-(6-(4-(4-((2-guanidinoethyl)amino)-4-oxobutyl)piperidin-1-yl)-2-(trifluoromethyl)pyrimidin-4-yl)azetidine-2-carboxamide]	100 to 999	4.2
COCC1CCN(c2cc(N3CCC[C@H]3C(=O)NCCc3ccc(C#N)cc3)nc(C(F)(F)F)n2)CC1 [Compound 24]	100 to 999	970
N#Cc1ccc(CCNC(=O)[C@@H]2CCCN2c2cc(N3CCC(CCCC(=O)NCCC(=O)O)CC3)nc(C(F)(F)F)n2)cc1 [Compound 104, (S)-3-(4-(1-(6-(2-((4-cyanophenethyl)carbamoyl)pyrrolidin-1-yl)-2-(trifluoromethyl)pyrimidin-4-yl)-piperidin-4-yl)butanamido)-propanoic acid]	100 to 999	8.9
N#Cc1ccc(CCNC(=O)[C@@H]2CCN2c2cc(N3CCC(CCNS(=O)(=O)CCNC(=O)[C@@H](N)CS(=O)(=O)O)CC3)nc(C(F)(F)F)n2)cc1 [Compound 363, (R)-2-amino-3-((2-(N-(2-(1-(6-((S)-2-((4-cyanophenethyl)carbamoyl)azetidin-1-yl)-2-(trifluoromethyl)pyrimidin-4-yl)piperidin-4-yl)ethyl)sulfamoyl)ethyl)amino)-3-oxopropane-1-sulfonic acid]	< 100	0.5
N#Cc1ccc(CCNC(=O)[C@@H]2CCN2c2cc(N3CCC(CCNC(=O)NCS(=O)(=O)O)CC3)nc(C(F)(F)F)n2)cc1 [Compound 270, (S)-(3-(2-(1-(6-(2-((4-cyanophenethyl)carbamoyl)azetidin-1-yl)-2-(trifluoromethyl)pyrimidin-4-yl)piperidin-4-yl)ethyl)ureido)-methanesulfonic acid]	< 100	5.4
N#Cc1ccc(CCNC(=O)[C@@H]2CCN2c2cc(N3CCC(CCNc4c(NCC(=O)O)c(=O)c4=O)CC3)nc(C(F)(F)F)n2)cc1 [Compound 302, (S)-2-((2-((2-(1-(6-(2-((4-cyanophenethyl)carbamoyl)azetidin-1-yl)-2-(trifluoromethyl)pyrimidin-4-yl)piperidin-4-yl)ethyl)amino)-3,4-dioxocyclobut-1-en-1-yl)amino)acetic acid]	< 100	3.7
N#Cc1ccc(CCNC(=O)[C@@H]2CCN2c2cc(N3CCC(CCCC(=O)NCP(=O)(O)O)CC3)nc(C(F)(F)F)n2)cc1 [Compound 362, (S)-((4-(1-(6-(2-((4-cyanophenethyl)carbamoyl)azetidin-1-yl)-2-(trifluoromethyl)pyrimidin-4-yl)piperidin-4-yl)butanamido)methyl)phosphonic acid]	< 100	36

The remaining lines, values ahead:

EC50 (Mouse STC-1 cells) [nM]	Cmax [1] [ng/mL]	SMILES
100 to 999	20	O=C(O)CCCC1CCN(c2cc(N3CCC[C@@H](C(=O)NCCc4ccc(C(F)(F)F)cc4)C3)nc(C(F)(F)F)n2)CC1 [Compound 330, (R)-4-(1-(2-(trifluoromethyl)-6-(3-((4-(trifluoromethyl)phenethyl)carbamoyl)piperidin-1-yl)pyrimidin-4-yl)piperidin-4-yl)butanoic acid]
< 100	3.7	N[C@@H](CS(=O)(=O)O)C(=O)NCCC1CCN(c2cc(N3CC[C@H]3C(=O)NCCc3ccc(C(F)(F)F)cc3)nc(C(F)(F)F)n2)CC1 [Compound 278, (R)-2-amino-3-oxo-3-((2-(1-(2-(trifluoromethyl)-6-((S)-2-((4-(trifluoromethyl)-phenethyl)carbamoyl)azetidin-1-yl)pyrimidin-4-yl)piperidin-4-yl)ethyl)amino)-propane-1-sulfonic acid]
< 100	31	COc1cc(C(F)(F)F)ccc1CCNC(=O)[C@@H]1CCCN1c1cc(N2CCC(CCCC(=O)O)CC2)nc(C(F)(F)F)n1 [Compound 34]
< 100	7.6	N#Cc1ccc(CCNC(=O)[C@@H]2CCN2c2cc(N3CCC(CCCC(=O)NCS(=O)(=O)O)CC3)nc(C(F)(F)F)n2)cc1 [Compound 250, (S)-(4-(1-(6-(2-((4-cyanophenethyl)carbamoyl)azetidin-1-yl)-2-(trifluoromethyl)pyrimidin-4-yl)piperidin-4-yl)butanamido)methanesulfonic acid]
100 to 999	55	N#Cc1ccc(CCNC(=O)[C@@H]2CCCN2c2cc(N3CCC(CCCC(=O)O)CC3)nc(C(F)(F)F)n2)cc1 [Compound 29]
100 to 999	48	N#Cc1ccc(CCNC(=O)[C@@H]2CCN2c2cc(N3CCC(CCCC(=O)NC[C@@H](O)CO)CC3)nc(C(F)(F)F)n2)cc1 [Compound 261, (S)-N-(4-cyanophenethyl)-1-(6-(4-(4-(((R)-2,3-dihydroxypropyl)amino)-4-oxobutyl)piperidin-1-yl)-2-(trifluoromethyl)pyrimidin-4-yl)azetidine-2-carboxamide]
< 100	44	N#Cc1ccc(CCNC(=O)[C@@H]2CCN2c2cc(N3CCC(CCO)CC3)nc(C(F)(F)F)n2)cc1 [Compound 223, (S)-N-(4-cyanophenethyl)-1-(6-(4-(2-hydroxyethyl)piperidin-1-yl)-2-(trifluoromethyl)pyrimidin-4-yl)azetidine-2-carboxamide]
100 to 999	670	N#Cc1ccc(CCNC(=O)[C@@H]2CCCN2c2cc(N3CCC(CCCC(=O)NCCNC(=N)N)CC3)nc(C(F)(F)F)n2)cc1 [Compound 128, (S)-N-(4-cyanophenethyl)-1-(6-(4-(4-((2-guanidinoethyl)amino)-4-oxobutyl)piperidin-1-yl)-2-(trifluoromethyl)pyrimidin-4-yl)pyrrolidine-2-carboxamide]
